Measured values as given in ChEMBL document CHEMBL1150082, “Antheliatin and Zahavins A and B, Three New Cytotoxic Xenicane Diterpenes from Two Soft Corals” (J Nat Prod, 1995).
Converted amounts (≈) assume the structure as drawn.

How the values were obtained:
Type in all cases: functional, cell-based
HT-29 = test: Cytotoxicity against human HT-29 cells
A549 = test: Cytotoxicity against human A549 cells
SK-MEL-28 = test: Cytotoxicity against human SK-MEL-28 cells
P388 = test: Cytotoxicity against mouse P388 cells

SMILES | IC50 (HT-29) [µg/mL] | IC50 (A549) [µg/mL] | IC50 (SK-MEL-28) [µg/mL] | IC50 (P388) [µg/mL]
C=C1[C@H]2[C@@H](OC(C)=O)OC=C([C@H](OC(C)=O)[C@@H](C=C(C)C)OC(=O)c3ccccc3)[C@H]2CC/C(C)=C/[C@H](OC(C)=O)[C@H]1O [ANTHELIATIN] | 0.1 (≈ 0.168 µM) | 1 (≈ 1.68 µM) | 1 (≈ 1.68 µM) | 1 (≈ 1.68 µM)
C=C(C)C(CC(OC(C)=O)C1=CO[C@H](OC(C)=O)[C@H]2C(=C)CC/C=C(\C)CC[C@H]12)OC(C)=O (some centres not stated) [ZAHAVIN A] | 1 (≈ 2.17 µM) | 1 (≈ 2.17 µM) | 1 (≈ 2.17 µM) | 1 (≈ 2.17 µM)
C=C(C)C(CC(OC(C)=O)C1=CO[C@H](OC(C)=O)[C@@H]2C(=C)[C@H](O)C/C=C(\C)CC[C@H]12)OC(C)=O (some centres not stated) [ZAHAVIN B] | 1 (≈ 2.1 µM) | 1 (≈ 2.1 µM) | 1 (≈ 2.1 µM) | 1 (≈ 2.1 µM)
